Test results reported in patent publication US20120252765A1, “USE OF […] THE PREPARATION OF A MEDICAMENT FOR THE PREVENTION OF HOSPI[…] HEART FAILURE” (SANOFI, priority 2009, published 2012).

Test system: patients with atrial fibrillation
Assay: partial factorial, double-blind, randomized, multi-center, placebo-controlled trial of irbesartan for prevention of vascular events
Type: in vivo, human
Text: Efficacy of irbesartan and its pharmaceutically acceptable salts versus placebo in patients with atrial fibrillation for the prevention of vascular events was provided via irbesartan during a partial factorial, double-blind, randomized, multi-center, placebo-controlled group trial.
To be eligible for the trial, patients had to have all of the following: an evidence of atrial fibrillation, an evidence of high risk of vascular events, and a systolic blood pressure of at least 110 mm Hg.
The evidence of atrial fibrillation is defined as follows: patient must have either permanent, paroxysmal or persistent atrial fibrillation. Patients in atrial fibrillation at baseline (unless cardiovascular surgery was performed in the previous month) had ECG documented atrial fibrillation at the time of enrollment. Patients not in atrial fibrillation at baseline (i.e. during screening period, between the screening visit and the day of randomization) had ECG documented atrial fibrillation on two separate occasions, at least 2 weeks apart in the six months prior to randomization (and not within one month of cardiovascular surgery).
The evidence of high risk of vascular events is defined as follows: at least one of the following risk criteria must be present:
Patients have been enrolled for over 4 years. Study drug treatment units (placebo or irbesartan) were such that each patient took two tablets of either placebo or 150 mg irbesartan form A, once daily, at night. After an up-titration period of 2 weeks, all patients were up-titrated to 300 mg. They took two tablets of either placebo or 150 mg irbesartan form A, once daily, at night.
Results were calculated using non-parametric Kaplan-Meier estimate.
Cox's proportional hazard model was used to estimate the hazard ratio also called relative risk.
Relative risk (RR) is the ratio between the risk of having a hospitalization for heart failure for patients treated with irbesartan and the risk of having a hospitalization for heart failure for patients treated with placebo.
The percentage of decrease of an event is calculated as follow: […]

CCCCC1=NC2(CCCC2)C(=O)N1Cc1ccc(-c2ccccc2-c2nnn[nH]2)cc1 [irbesartan, 2-n-butyl-4-spirocyclopentane-1-[(2′-(tetrazol-5-yl)biphenyl-4-yl)methyl]-2-imidazolin-5-one]
risk of heart failure hospitalization (4518 patients on irbesartan form A up-titrated to 300 mg once daily, Kaplan-Meier estimate, placebo 3.2% per year): 2.7 % per year
number of stays in hospital (irbesartan group, placebo 4059, p=0.004): 3817
days hospitalized for cardiovascular reasons (irbesartan group, placebo 39941, p=0.0001): 36480 days
decrease of days hospitalized for cardiovascular reasons (irbesartan versus placebo): 8.7%
relative risk (hazard ratio) of hospitalization for heart failure (irbesartan versus placebo, Cox's proportional hazard model, confidence interval 0.76-0.98, p=0.018): 0.86
reduction in the risk of heart failure hospitalization (1-RR) (irbesartan versus placebo, p=0.018): 14%
hospitalization for heart failure events (number of events in the irbesartan group (4518 patients), placebo 551): 482
reduction in the risk of the composite of stroke, non-CVS embolism and transient ischemic attacks (post hoc analysis, irbesartan versus placebo, p=0.02): 13%
risk of the composite of stroke, non-CVS embolism and transient ischemic attacks (post hoc analysis, placebo 3.4% per year): 2.9 % per year
